Molecular target: T1, AsPC-1 HiBiT-KRASG12D (Homo sapiens, UniProt P01116, G12D)
T1 construct: insert the HiBiT tag onto the N-terminus of one or more of the endogenous KRAS alleles; endogenous in cells; host or cells: AsPC-1 (ATCC CRL-1682), CRISPR-Cas9 knock-in clone, one tagged allele
Assay: HiBiT degradation assay (G12D), AsPC-1 HiBiT-KRASG12D cells
Format: cell-based
Details: 24 hours treatment; for Dmax: ASPC1, AsPC-1 HiBiT-KRASG12D cells, maximum degradation observed; for DC50: AsPC-1 HiBiT-KRASG12D cells, HiBiT luminescence
Summary of the method: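 Endogenous KRASG12D levels were measured via an N-terminal HiBiT tag knocked into AsPC-1 cells. Cells received compound titrations for 24 hours, and HiBiT luminescence was detected after a 45-minute lytic reagent incubation at room temperature.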

T1 sequence (P01116 1-188 isoform P01116-2 G12D): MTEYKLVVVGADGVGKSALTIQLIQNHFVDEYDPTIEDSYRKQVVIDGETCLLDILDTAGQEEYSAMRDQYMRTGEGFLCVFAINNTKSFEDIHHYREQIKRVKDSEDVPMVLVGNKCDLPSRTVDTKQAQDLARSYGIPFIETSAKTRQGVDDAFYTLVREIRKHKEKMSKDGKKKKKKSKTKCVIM

For `CCc1cccc2cc(O)cc(-c3ncc4c(N5CC6CCC(C5)N6)nc(N5CC(CN6CCC(CC7CN(c8cc([C@H](C(=O)N9C[C@H](O)C[C@H]9C(=O)N[C@@H](C)c9ccc(-c%10scnc%10C)cc9)C(C)C)on8)C7)CC6)C5)nc4c3F)c12` [Compound 182, (2S,4R)-1-[(2R)-2-(3-{3-[(1-{[1-(4-{3,8-diazabicyclo[3.2.1]octan-3-yl}-7-(8-ethyl-3-hydroxynaphthalen-1-yl)-8-fluoropyrido[4,3-d]pyrimidin-2-yl)azetidin-3-yl]methyl}piperidin-4-yl)methyl]azetidin-1-yl}-1,2-oxazol-5-yl)-3-methylbutanoyl]-4-hydroxy-N-[(1S)-1-[4-(4-methyl-1,3-thiazol-5-yl)phenyl]ethyl]pyrrolidine-2-carboxamide], the Dmax was 20 to 60% and the DC50 was under 0.6 µM.

For `C#Cc1c(F)ccc2cc(O)cc(-c3ncc4c(N5CC6CCC(C5)N6)nc(OCCN5CC[C@H]6CN(c7cc([C@H](C(=O)N8C[C@H](O)C[C@H]8C(=O)N[C@@H](C)c8ccc(-c9scnc9C)cc8)C(C)C)on7)C[C@H]6C5)nc4c3F)c12` [Compound 183, (2S,4R)-1-[(2R)-2-{3-[(3aR,7aR)-5-{2-[(4-{3,8-diazabicyclo[3.2.1]octan-3-yl}-7-(8-ethynyl-7-fluoro-3-hydroxynaphthalen-1-yl)-8-fluoropyrido[4,3-d]pyrimidin-2-yl)oxy]ethyl}-octahydro-1H-pyrrolo[3,4-c]pyridin-2-yl]-1,2-oxazol-5-yl}-3-methylbutanoyl]-4-hydroxy-N-[(1S)-1-[4-(4-methyl-1,3-thiazol-5-yl)phenyl]ethyl]pyrrolidine-2-carboxamide], the Dmax was 80 to 100% and the DC50 was under 0.6 µM.

In the case of `C#Cc1c(F)ccc2cc(O)cc(-c3ncc4c(N5CC6CCC(C5)N6)nc(OCCN5CCC(CCC6CN(c7cc([C@H](C(=O)N8C[C@H](O)C[C@H]8C(=O)N[C@@H](C)c8ccc(-c9scnc9C)cc8)C(C)C)on7)C6)CC5)nc4c3F)c12` [Compound 184], the Dmax is reported as 80 to 100% and the DC50 is reported as under 0.6 µM.

For `C#Cc1c(F)ccc2cc(O)cc(-c3ncc4c(N5CC6CCC(C5)N6)nc(OCCN5CCC(C6CN(c7cc([C@H](C(=O)N8C[C@H](O)C[C@H]8C(=O)N[C@@H](C)c8ccc(-c9scnc9C)cc8)C(C)C)on7)C6)CC5)nc4c3F)c12` [Compound 185], the Dmax was 80 to 100% and the DC50 was under 0.6 µM.

`CCc1cccc2cc(O)cc(-c3ncc4c(N5CC6CCC(C5)N6)nc(OCCN5CCC(C(C)(C)N6CCN(c7cc([C@H](C(=O)N8C[C@H](O)C[C@H]8C(=O)N[C@@H](C)c8ccc(-c9scnc9C)cc8)C(C)C)on7)CC6)CC5)nc4c3F)c12` [Compound 186, (2S,4R)-1-[(2R)-2-(3-{4-[2-(1-{2-[(4-{3,8-diazabicyclo[3.2.1]octan-3-yl}-7-(8-ethyl-3-hydroxynaphthalen-1-yl)-8-fluoropyrido[4,3-d]pyrimidin-2-yl)oxy]ethyl}piperidin-4-yl)propan-2-yl]piperazin-1-yl}-1,2-oxazol-5-yl)-3-methylbutanoyl]-4-hydroxy-N-[(1S)-1-[4-(4-methyl-1,3-thiazol-5-yl)phenyl]ethyl] pyrrolidine-2-carboxamide] gave a Dmax of 80 to 100% and a DC50 of under 0.6 µM.

`CCc1cccc2cc(O)cc(-c3ncc4c(N5C[C@H]6CC[C@@H](C5)N6)nc(OCCN5CCC(C)(CN6CCN(c7cc([C@H](C(=O)N8C[C@H](O)C[C@H]8C(=O)N[C@@H](C)c8ccc(-c9scnc9C)cc8)C(C)C)on7)CC6)CC5)nc4c3F)c12` [Compound 187, (2S,4R)-1-((R)-2-(3-(4-((1-(2-((4-((1R,5S)-3,8-diazabicyclo[3.2.1]octan-3-yl)-7-(8-ethyl-3-hydroxynaphthalen-1-yl)-8-fluoropyrido[4,3-d]pyrimidin-2-yl)oxy)ethyl)-4-methylpiperidin-4-yl)methyl)piperazin-1-yl)isoxazol-5-yl)-3-methylbutanoyl)-4-hydroxy-N—((S)-1-(4-(4-methylthiazol-5-yl)phenyl)ethyl)pyrrolidine-2-carboxamide] gave a Dmax of 80 to 100% and a DC50 of under 0.6 µM.

`CCc1cccc2cc(O)cc(-c3ncc4c(N5C[C@H]6CC[C@@H](C5)N6)nc(OCCN5CCC(C)(CN6CCN(c7cc([C@@H](C(=O)N8C[C@H](O)C[C@H]8C(=O)N[C@@H](C)c8ccc(-c9scnc9C)cc8)C(C)C)on7)CC6)CC5)nc4c3F)c12` [Compound 188, (2S,4R)-1-((S)-2-(3-(4-((1-(2-((4-((1R,5S)-3,8-diazabicyclo[3.2.1]octan-3-yl)-7-(8-ethyl-3-hydroxynaphthalen-1-yl)-8-fluoropyrido[4,3-d]pyrimidin-2-yl)oxy)ethyl)-4-methylpiperidin-4-yl)methyl)piperazin-1-yl)isoxazol-5-yl)-3-methylbutanoyl)-4-hydroxy-N—((S)-1-(4-(4-methylthiazol-5-yl)phenyl)ethyl)pyrrolidine-2-carboxamide] showed a Dmax of 20 to 60% and a DC50 of 1 to 3 µM.

`CCc1cccc2cc(O)cc(-c3ncc4c(N5CC6CCC(C5)N6)nc(N5CC(CN6CCC(CC7CN(c8cc([C@@H](C(=O)N9C[C@H](O)C[C@H]9C(=O)N[C@@H](C)c9ccc(-c%10scnc%10C)cc9)C(C)C)on8)C7)CC6)C5)nc4c3F)c12` [Compound 189, (2S,4R)-1-[(2S)-2-(3-{3-[(1-{[1-(4-{3,8-diazabicyclo[3.2.1]octan-3-yl}-7-(8-ethyl-3-hydroxynaphthalen-1-yl)-8-fluoropyrido[4,3-d]pyrimidin-2-yl)azetidin-3-yl]methyl}piperidin-4-yl)methyl]azetidin-1-yl}-1,2-oxazol-5-yl)-3-methylbutanoyl]-4-hydroxy-N-[(1S)-1-[4-(4-methyl-1,3-thiazol-5-yl)phenyl]ethyl]pyrrolidine-2-carboxamide] showed a DC50 of over 3 µM.

`C#Cc1c(F)ccc2cc(O)cc(-c3ncc4c(N5CC6CCC(C5)N6)nc(OCCN5CCC(CN6CCN(c7cc([C@H](C(=O)N8C[C@H](O)C[C@H]8C(=O)N[C@@H](C)c8ccc(-c9ccnn9C)cc8)C(C)C)on7)CC6)CC5)nc4c3F)c12` [Compound 190, (2S,4R)-1-[(2R)-2-(3-{4-[(1-{2-[(4-{3,8-diazabicyclo[3.2.1]octan-3-yl}-7-(8-ethynyl-7-fluoro-3-hydroxynaphthalen-1-yl)-8-fluoropyrido[4,3-d]pyrimidin-2-yl)oxy]ethyl}piperidin-4-yl)methyl]piperazin-1-yl}-1,2-oxazol-5-yl)-3-methylbutanoyl]-4-hydroxy-N-[(1S)-1-[4-(1-methyl-1H-pyrazol-5-yl)phenyl]ethyl] pyrrolidine-2-carboxamide] showed a Dmax of 80 to 100% and a DC50 of under 0.6 µM.

Compound `CCc1cccc2cc(O)cc(-c3ncc4c(N5CC6CCC(C5)N6)nc(OCCN5CCC(CN6CCN(c7cc([C@H](C(=O)N8C[C@H](O)C[C@H]8C(=O)N[C@@H](C)c8ccc(-c9ccnn9C)cc8)C(C)C)on7)CC6)CC5)nc4c3F)c12` [Compound 191, (2S,4R)-1-[(2R)-2-(3-{4-[(1-{2-[(4-{3,8-diazabicyclo[3.2.1]octan-3-yl}-7-(8-ethyl-3-hydroxynaphthalen-1-yl)-8-fluoropyrido[4,3-d]pyrimidin-2-yl)oxy]ethyl}piperidin-4-yl)methyl]piperazin-1-yl}-1,2-oxazol-5-yl)-3-methylbutanoyl]-4-hydroxy-N-[(1S)-1-[4-(1-methyl-1H-pyrazol-5-yl)phenyl]ethyl]pyrrolidine-2-carboxamide] has a Dmax of 80 to 100% and a DC50 of under 0.6 µM.

For `CCc1cccc2cc(O)cc(-c3ncc4c(N5CC6CCC(C5)N6)nc(N5CCC(CN6CCC(CC7CN(c8cc([C@H](C(=O)N9C[C@H](O)C[C@H]9C(=O)N[C@@H](C)c9ccc(-c%10scnc%10C)cc9)C(C)C)on8)C7)CC6)CC5)nc4c3F)c12` [Compound 192, (2S,4R)-1-[(2R)-2-(3-{3-[(1-{[1-(4-{3,8-diazabicyclo[3.2.1]octan-3-yl}-7-(8-ethyl-3-hydroxynaphthalen-1-yl)-8-fluoropyrido[4,3-d]pyrimidin-2-yl)piperidin-4-yl]methyl}piperidin-4-yl)methyl]azetidin-1-yl}-1,2-oxazol-5-yl)-3-methylbutanoyl]-4-hydroxy-N-[(1S)-1-[4-(4-methyl-1,3-thiazol-5-yl)phenyl]ethyl]pyrrolidine-2-carboxamide], the DC50 was over 3 µM.

Compound `CCc1cccc2cc(O)cc(-c3ncc4c(N5CC6CCC(C5)N6)nc(N5CCC(CN6CCC(CC7CN(c8cc([C@@H](C(=O)N9C[C@H](O)C[C@H]9C(=O)N[C@@H](C)c9ccc(-c%10scnc%10C)cc9)C(C)C)on8)C7)CC6)CC5)nc4c3F)c12` [Compound 193, (2S,4R)-1-[(2S)-2-(3-{3-[(1-{[1-(4-{3,8-diazabicyclo[3.2.1]octan-3-yl}-7-(8-ethyl-3-hydroxynaphthalen-1-yl)-8-fluoropyrido[4,3-d]pyrimidin-2-yl)piperidin-4-yl]methyl}piperidin-4-yl)methyl]azetidin-1-yl}-1,2-oxazol-5-yl)-3-methylbutanoyl]-4-hydroxy-N-[(1S)-1-[4-(4-methyl-1,3-thiazol-5-yl)phenyl]ethyl]pyrrolidine-2-carboxamide] has a DC50 of over 3 µM.

In the case of `CCc1cccc2cc(O)cc(-c3ncc4c(N5CC6CCC(C5)N6)nc(OCCN5CCC(F)(CN6CCN(c7cc([C@H](C(=O)N8C[C@H](O)C[C@H]8C(=O)N[C@@H](C)c8ccc(-c9scnc9C)cc8)C(C)C)on7)[C@H](C)C6)CC5)nc4c3F)c12` [Compound 194, (2S,4R)-1-[(2R)-2-{3-[(2R)-4-[(1-{2-[(4-{3,8-diazabicyclo[3.2.1]octan-3-yl}-7-(8-ethyl-3-hydroxynaphthalen-1-yl)-8-fluoropyrido[4,3-d]pyrimidin-2-yl)oxy]ethyl}-4-fluoropiperidin-4-yl)methyl]-2-methylpiperazin-1-yl]-1,2-oxazol-5-yl}-3-methylbutanoyl]-4-hydroxy-N-[(1S)-1-[4-(4-methyl-1,3-thiazol-5-yl)phenyl]ethyl]pyrrolidine-2-carboxamide], the Dmax is reported as 80 to 100% and the DC50 is reported as under 0.6 µM.
